Assay results: patent publication US12252517B2, “Hook fusion protein for regulating the cellular trafficking of a target protein” (INSTITUT CURIE, priority 2017, dated 2025)

Legend:
Type in all cases: cell-based
scFvCD19-Myc-DAP10-sSBP = assay: Time course release using biotin (RUSH traffic, immunofluorescence) with Str-endoKKXX hook; settings: HeLa cells, addition of biotin (40 μM)
Method: (§1) HeLa cells were cultivated at 37° C. and 5% of CO2 in Dulbecco's modified Eagle medium (DMEM) supplemented with 10%1-BS (Biowest), 1 mM sodium Pyruvate and […] of penicillin and streptomycin (Invitrogen). HeLa cells were transfected with the plasmid of interest using Calcium phosphate protocol in the presence of 25 mM of HEPES. Briefly, the plasmids coding the sequence of CAR based RUSH such as CD3-SBP-NKG2D (SEQ ID NO: 13), scFv(CD19)-GFP-DAP10CD3-sSBP (SEQ ID NO: 23), scFv(CD19)-GFP-DAP10-SBPdel (SEQ ID NO: 24), scFv(CD19)-mycDAP10-SBP (SEQ ID NO: 25) or BACE1-SBP-EGFP (SEQ ID NO: 26) (2.5 ug per 1 mL of final volume) were add to 1 mM tris-HCl pH 8.02 buffer followed by the addition of 10% of CaCl2 and incubated for 5 min (RT). Then this mix was add drop by drop into 2× concentrate HEBS buffer (160 mM NaCl, 1.5 mM Na2HPO4, 50 mM Hepes PH 7.04-7.05) while vortexing. The cells were incubated with this solution overnight at 37° C. and 5% of CO2.
(§2) The cells were seeded into a glass coverslips for fixed cell immunofluorescence and/or live imaging. In the next day the cells were transfected with the plasmids coding the construct of interest as previously described. For the steady state of the protein/construct, 40 μM final concentration of biotin was added (4 mM stock solution) just after addition of the transfection solution. […]

[1] = tested on: scFv (CD19)-GFP-DAP10-sSBP; assay: Time course release using biotin (RUSH traffic) with soluble mini hook; settings: HeLa cells, addition of biotin
Method: as §1, §2

[2] = tested on: scFv (CD19)-GFP-DAP10CD3-sSBP; assay: as above; settings: HeLa cells, addition of biotin
Method: as §1, §2

[3] = tested on: BACE1-GFP-SBP (BACE1-RUSH); assay: Retention, ALiS-1 release and wash-out retrieval from the cell surface; settings: HeLa cells
Method: as §1
Biotin-mimetic molecule ALiS-1 was prepared in DMSO to 20 mM (stock solution) and the cells were treated with 40 μM final concentration to prevent the interaction between the reporter (target membrane protein) and the hook.
Cells coated in the coverslips were washed once in 1×PBS buffer, fixed in 3% of paraformaldehyde (PFA) (10-15 min, RT), washed (2×) and incubated with 50 mM of NH4Cl (5 min, RT) to quench free aldehydes. […]

O=C(O)CCCC[C@@H]1SC[C@@H]2NC(=O)N[C@@H]21 [biotin]
release of reporter from the hook (scFvCD19-Myc-DAP10-sSBP): released | release of reporter from the hook [1]: leads to the release | release of reporter from the hook [2]: leads to the release

B1: Ii Hook: previously described Invariant chain-based Hook: streptavidin fused to human invariant chain Ii (Boncompain et al. 2012) (protein)
chain: MHRRRSRSCREDQKPVMDDQRDLISNNEQLPMLGRRPGAPESKCSRGALYTGFSILVTLLLAGQATTAYFLYQQQGRLDKLTVTSQNLQLENLRMKLPKPPKPVSKMRMATPLLMQALPMGALPQGPMQNATKYGNMTEDHVMHLLQNADPLKVYPPLKGSFPENLRHLKNTMETIDWKVFESWMHHWLLFEMSRHSLEQKPTDAPPKESLELEDPSSGLGVTKQDLGPVPM
modifications: left off: large carriers
localization of reporter ([3]; absence of releasing molecule (without biotin)): retained in the ER | retrieval of cell surface reporter back to the ER ([3]; washing-out ALiS-1 for 1 hour): does not allow to capture cell surface localized BAC1-RUSH
